Tested on: 633275-114-R-J1-PDC complex spheroids, viability
Assay: Anticancer human tumor 633275-114-R-J1-PDC patient-derived endometrial adenocarcinoma cell line growth inhibition [GQUAD]
Details: for IC50: curve of first compound; for viability, T/C: stronger effect = lower value
Excerpt: DNA G-quadruplex Stabilizer Agents in Combinations in Complex Spheroids
A high-throughput screen of multi-cell type tumor spheroids was designed to identify active combinations of DNA G-quadruplex stabilizer agents and targeted small molecules. Complex spheroids include a stromal component modeled by human endothelial cells (HUVEC) and fibroblasts modeled by human mesenchymal stem cells (MSCs). The concentration ranges selected for each drug and investigational agent were based upon clinically achievable concentrations if the clinical Cmax of the agent was known.
Compounds. The drugs and investigational agents: pidnarulex (CX-5461; NSC782164), APTO-253 (NSC789042), BRACO-19 (NSC847499), peposertib (NSC802822), ceralasertib (NSC780249), elimusertib (NSC800525), camonsertib (NSC841442), AZD-1390 (NSC803789), olaparib (NSC753686), talazoparib (NSC767125), ART-558 (NSC835418), sotorasib (NSC818433), MRTX-1133 (NSC836407), SN-38 (NSC673596), topotecan (NSC609699), etoposide (NSC141540), doxorubicin (NSC123127), gemcitabine (NSC613327), 5-fluorouracil (NSC19893), paclitaxel (NSC125973), vemurafenib (NSC761431), panobinostat (NSC761190), R-306465 (JNJ-16241199; NSC773264), adavosertib (NSC754352), TP-3654 (NSC805149), carboplatin (NSC241240), KSQ-4279 (NSC840948), and staurosporine (NSC755774) were obtained from the National Cancer Institute (NCI) Developmental Therapeutics Program Chemical Repository (34). The FDA-approved anticancer drug set is available from the NCI Developmental Therapeutics Program. […] The stock solutions were prepared in dimethyl sulfoxide (DMSO, Sigma-Aldrich, St. Louis, MO, cat. D2650) at 800-fold the tested concentration and stored at -70 degrees C prior to their use. All drugs and investigational agents were tested over a range starting from a high concentration at or near the clinical Cmax and decreasing in half-log increments. If the clinical Cmax for an agent had not been determined, the highest concentration tested was 10 microM.
2.3 Cell Culture. All cells were maintained in an incubator at 37 degrees C and 5% CO2 with 95% humidity. The PDC lines were cultured according to standard operating procedures established by the NCI PDMR. All PDCs were thawed and cultured in Matrigel-coated flasks prepared with a working solution of 1X Ham's F-12 nutrient mix, without supplementation (Invitrogen, cat. 11765054), 100 U/mL penicillin-streptomycin (Invitrogen, cat. 15140122), and 2.5% Matrigel (Corning Inc., cat. 354248) for the first three passages. The 857933-349-R-J2-PDC line was cultured in 6C/Colon 1B media, which includes advanced DMEM/F-12 (Thermo Fisher Scientific, cat. 12634028), 10 mM HEPES (Thermo Fisher Scientific, cat. 15630080), 1X GlutaMAX supplement (Thermo Fisher Scientific, cat. 35050061), 0.1 mg/mL primocin (InvivoGen, cat. ant-pm-2), 10% defined fetal bovine serum, heat inactivated (HyClone Laboratories Inc., cat. SH30070.03HI), 50% L-WRN conditioned media (ATCC, cat. CRL-3276), 1.25 mM N-Acetyl-L-cysteine (Sigma-Aldrich, cat. A9165), 10 mM nicotinamide (Sigma-Aldrich, cat. N0636), 1X B-27 supplement (Thermo Fisher Scientific, cat. 17504044), 1X N-2 supplement (Thermo Fisher Scientific, cat. 17502048), 10 microM Y-27632 dihydrochloride (Tocris Bioscience, cat. 1254), and 50 ng/mL human EGF recombinant protein (Thermo Fisher Scientific, cat. PHG0311). The 485176-168-R4-J1-PDC line was cultured in Panc media, which includes all 6C/Colon 1B media components plus 100 ng/mL human FGF-10 (Thermo Fisher Scientific, cat. 100-26), 500 nM SB-431542 (Selleckchem, cat. S1067), and gastrin (Tocris, cat. 3006).
[…]

[1] = second compound 0.0316 µM, first compound 0.0316 µM
[2] = second compound 0.0316 µM, first compound 0.316 µM
[3] = second compound 0.1 µM, first compound 0.0316 µM
[4] = second compound 0.1 µM, first compound 0.316 µM
[5] = second compound 0.316 µM, first compound 0.0316 µM
[6] = second compound 0.316 µM, first compound 0.316 µM
[7] = second compound 1 µM, first compound 0.0316 µM
[8] = second compound 1 µM, first compound 0.316 µM
[9] = second compound 3.16 µM, first compound 0.0316 µM
[10] = second compound 3.16 µM, first compound 0.316 µM
[11] = second compound 10 µM, first compound 0.0316 µM
[12] = second compound 10 µM, first compound 0.316 µM
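Further: spheroids exposed to the agents for seven days.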
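Wherever viability, T/C is given: percent of DMSO vehicle control viability which is 100%.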

In the case of C=CC(=O)N1CCN(c2nc(=O)n(-c3c(C)ccnc3C(C)C)c3nc(-c4c(O)cccc4F)c(F)cc23)C(C)C1 (centres undefined) + CN(C)c1ccc(Nc2c3ccc(NC(=O)CCN4CCCC4)cc3nc3cc(NC(=O)CCN4CCCC4)ccc23)cc1, the IC50 (second compound 0.0316 µM) is reported as > 10000 nM, the IC50 (second compound 0.1 µM) is reported as > 10000 nM and the IC50 (second compound 0.316 µM) is reported as > 10000 nM. The IC50 (second compound 1 µM) was > 10000 nM, the IC50 (second compound 3.16 µM) was > 10000 nM and the IC50 (second compound 10 µM) was < 31.6 nM. For the same compound, the viability, T/C [1] was 109%, the viability, T/C (second compound 0.0316 µM, first compound 0.1 µM) was 88% and the viability, T/C [2] was 94.9%. The viability, T/C (second compound 0.0316 µM, first compound 1 µM) was 92.5%, the viability, T/C (second compound 0.0316 µM, first compound 3.16 µM) was 106% and the viability, T/C (second compound 0.0316 µM, first compound 10 µM) was 81.8%. The viability, T/C [3] was 98.1%, the viability, T/C (second compound 0.1 µM, first compound 0.1 µM) was 92% and the viability, T/C [4] was 97.7%. The viability, T/C (second compound 0.1 µM, first compound 1 µM) was 92.6%, the viability, T/C (second compound 0.1 µM, first compound 3.16 µM) was 97.2% and the viability, T/C (second compound 0.1 µM, first compound 10 µM) was 76%. It also gave a viability, T/C [5] of 92.8%, a viability, T/C (second compound 0.316 µM, first compound 0.1 µM) of 95.4% and a viability, T/C [6] of 110%. The viability, T/C (second compound 0.316 µM, first compound 1 µM) was 110%, the viability, T/C (second compound 0.316 µM, first compound 3.16 µM) was 98.9% and the viability, T/C (second compound 0.316 µM, first compound 10 µM) was 76%. For the same compound, the viability, T/C [7] was 95.5%, the viability, T/C (second compound 1 µM, first compound 0.1 µM) was 88.6% and the viability, T/C [8] was 100%. For the same compound, the viability, T/C (second compound 1 µM, first compound 1 µM) was 97.5%, the viability, T/C (second compound 1 µM, first compound 3.16 µM) was 104% and the viability, T/C (second compound 1 µM, first compound 10 µM) was 65.2%. For the same compound, the viability, T/C [9] was 84.2%, the viability, T/C (second compound 3.16 µM, first compound 0.1 µM) was 85.1% and the viability, T/C [10] was 92.1%. It also gave a viability, T/C (second compound 3.16 µM, first compound 1 µM) of 84.5%, a viability, T/C (second compound 3.16 µM, first compound 3.16 µM) of 78.1% and a viability, T/C (second compound 3.16 µM, first compound 10 µM) of 51.3%. It also gave a viability, T/C [11] of 34.3%, a viability, T/C (second compound 10 µM, first compound 0.1 µM) of 34.3% and a viability, T/C [12] of 35.2%. For the same compound, the viability, T/C (second compound 10 µM, first compound 1 µM) was 41%, the viability, T/C (second compound 10 µM, first compound 3.16 µM) was 37.3% and the viability, T/C (second compound 10 µM, first compound 10 µM) was 15.4%.

For CC[C@@]1(O)C(=O)OCc2c1cc1n(c2=O)Cc2cc3c(CN(C)C)c(O)ccc3nc2-1 + CN(C)c1ccc(Nc2c3ccc(NC(=O)CCN4CCCC4)cc3nc3cc(NC(=O)CCN4CCCC4)ccc23)cc1, the IC50 (second compound 0.0316 µM) was 71.5 nM, the IC50 (second compound 0.1 µM) was 73 nM and the IC50 (second compound 0.316 µM) was 81.2 nM. The IC50 (second compound 1 µM) was 58.2 nM, the IC50 (second compound 3.16 µM) was 48.3 nM and the IC50 (second compound 10 µM) was < 0.999 nM. The viability, T/C (second compound 0.0316 µM, first compound 0.000999 µM) was 96.1%, the viability, T/C (second compound 0.0316 µM, first compound 0.00316 µM) was 105% and the viability, T/C (second compound 0.0316 µM, first compound 0.00999 µM) was 98.3%. For the same compound, the viability, T/C [1] was 75.2%, the viability, T/C (second compound 0.0316 µM, first compound 0.0999 µM) was 39.7% and the viability, T/C [2] was 35.9%. The viability, T/C (second compound 0.1 µM, first compound 0.000999 µM) was 93.4%, the viability, T/C (second compound 0.1 µM, first compound 0.00316 µM) was 101% and the viability, T/C (second compound 0.1 µM, first compound 0.00999 µM) was 99%. For the same compound, the viability, T/C [3] was 74.1%, the viability, T/C (second compound 0.1 µM, first compound 0.0999 µM) was 42% and the viability, T/C [4] was 36%. The viability, T/C (second compound 0.316 µM, first compound 0.000999 µM) was 101%, the viability, T/C (second compound 0.316 µM, first compound 0.00316 µM) was 104% and the viability, T/C (second compound 0.316 µM, first compound 0.00999 µM) was 85.5%. The viability, T/C [5] was 72.9%, the viability, T/C (second compound 0.316 µM, first compound 0.0999 µM) was 42.6% and the viability, T/C [6] was 36.3%. The viability, T/C (second compound 1 µM, first compound 0.000999 µM) was 98%, the viability, T/C (second compound 1 µM, first compound 0.00316 µM) was 88.6% and the viability, T/C (second compound 1 µM, first compound 0.00999 µM) was 91.2%. For the same compound, the viability, T/C [7] was 64.8%, the viability, T/C (second compound 1 µM, first compound 0.0999 µM) was 36.7% and the viability, T/C [8] was 35%. It also gave a viability, T/C (second compound 3.16 µM, first compound 0.000999 µM) of 82.3%, a viability, T/C (second compound 3.16 µM, first compound 0.00316 µM) of 82% and a viability, T/C (second compound 3.16 µM, first compound 0.00999 µM) of 80.7%. The viability, T/C [9] was 54%, the viability, T/C (second compound 3.16 µM, first compound 0.0999 µM) was 40.6% and the viability, T/C [10] was 27%. It also gave a viability, T/C (second compound 10 µM, first compound 0.000999 µM) of 35.2%, a viability, T/C (second compound 10 µM, first compound 0.00316 µM) of 41.3% and a viability, T/C (second compound 10 µM, first compound 0.00999 µM) of 28.8%. The viability, T/C [11] was 26.5%, the viability, T/C (second compound 10 µM, first compound 0.0999 µM) was 15.3% and the viability, T/C [12] was 13.7%.
